# Laboratory results from PMC9234961 (Journal of Medicinal Chemistry, 2022).
# Read-outs that look alike come from different tables or passages of the source.
# Legend:
# kinases (468) [1] = biological target: kinases (468) (Homo sapiens, UniProt O00329); conditions: PIK3CD; 1000 nM
# kinases (468) [2] = biological target: kinases (468) (Homo sapiens, UniProt O75747); conditions: PIK3C2G; 1000 nM
# kinases (468) [3] = biological target: kinases (468) (Homo sapiens, UniProt O95835); conditions: LATS1; 1000 nM
# kinases (468) [4] = biological target: kinases (468) (Homo sapiens, UniProt P00519, H396P); conditions: 1000 nM
# kinases (468) [5] = biological target: kinases (468) (Homo sapiens, UniProt P00533, G719S); conditions: EGFR(G719S); 1000 nM
# kinases (468) [6] = biological target: kinases (468) (Homo sapiens, UniProt P06241); conditions: FYN; 1000 nM
# kinases (468) [7] = biological target: kinases (468) (Homo sapiens, UniProt P22607); conditions: FGFR3; 1000 nM
# kinases (468) [8] = biological target: kinases (468) (Homo sapiens, UniProt P23458); conditions: 1000 nM
# kinases (468) [9] = biological target: kinases (468) (Homo sapiens, UniProt P29322); conditions: EPHA8; 1000 nM
# kinases (468) [10] = biological target: kinases (468) (Homo sapiens, UniProt P30291); conditions: kinase WEE1 (Entrez WEE1); compound concentration 1000 nM
# kinases (468) [11] = biological target: kinases (468) (Homo sapiens, UniProt P41240); conditions: CSK; 1000 nM
# kinases (468) [12] = biological target: kinases (468) (Homo sapiens, UniProt P42345); conditions: MTOR; 1000 nM
# kinases (468) [13] = biological target: kinases (468) (Homo sapiens, UniProt P45984); conditions: JNK2 (MAPK9); 1000 nM
# kinases (468) [14] = biological target: kinases (468) (Homo sapiens, UniProt P54762); conditions: EPHB1; 1000 nM
# kinases (468) [15] = biological target: kinases (468) (Homo sapiens, UniProt Q02763); conditions: kinase TIE2 (Entrez TEK); compound concentration 1000 nM
# kinases (468) [16] = biological target: kinases (468) (Homo sapiens, UniProt Q06187); conditions: BTK; 1000 nM
# kinases (468) [17] = biological target: kinases (468) (Homo sapiens, UniProt Q07002); conditions: PCTK3 (CDK18); 1000 nM
# kinases (468) [18] = biological target: kinases (468) (Homo sapiens, UniProt Q13177); conditions: PAK2; 1000 nM
# kinases (468) [19] = biological target: kinases (468) (Homo sapiens, UniProt Q13557); conditions: CAMK2D; 1000 nM
# kinases (468) [20] = biological target: kinases (468) (Homo sapiens, UniProt Q13873); conditions: BMPR2; 1000 nM
# kinases (468) [21] = biological target: kinases (468) (Homo sapiens, UniProt Q15208); conditions: NDR1 (STK38); 1000 nM
# kinases (468) [22] = biological target: kinases (468) (Homo sapiens, UniProt Q16539); conditions: p38-alpha (MAPK14); 1000 nM
# kinases (468) [23] = biological target: kinases (468) (Homo sapiens, UniProt Q16584); conditions: MLK3 (MAP3K11); 1000 nM
# kinases (468) [24] = biological target: kinases (468) (Homo sapiens, UniProt Q16659); conditions: ERK3 (MAPK6); 1000 nM
# kinases (468) [25] = biological target: kinases (468) (Homo sapiens, UniProt Q2M2I8); conditions: AAK1; 1000 nM
# kinases (468) [26] = biological target: kinases (468) (Homo sapiens, UniProt Q59H18); conditions: kinase TNNI3K (Entrez TNNI3K); compound concentration 1000 nM
# kinases (468) [27] = biological target: kinases (468) (Homo sapiens, UniProt Q86UE8); conditions: kinase TLK2 (Entrez TLK2); compound concentration 1000 nM
# kinases (468) [28] = biological target: kinases (468) (Homo sapiens, UniProt Q8N752); conditions: CSNK1A1L; 1000 nM
# kinases (468) [29] = biological target: kinases (468) (Homo sapiens, UniProt Q92630); conditions: DYRK2; 1000 nM
# kinases (468) [30] = biological target: kinases (468) (Homo sapiens, UniProt Q96GD4); conditions: AURKB; 1000 nM
# kinases (468) [31] = biological target: kinases (468) (Homo sapiens, UniProt Q96SB4); conditions: kinase SRPK1 (Entrez SRPK1); compound concentration 1000 nM
# kinases (468) [32] = biological target: kinases (468) (Homo sapiens, UniProt Q9H4B4); conditions: PLK3; 1000 nM
# kinases (468) [33] = biological target: kinases (468) (Homo sapiens, UniProt Q9HCP0); conditions: CSNK1G1; 1000 nM
# kinases (468) [34] = biological target: kinases (468) (Homo sapiens, UniProt Q9UIK4); conditions: DAPK2; 1000 nM
# kinases (468) [35] = biological target: kinases (468) (Homo sapiens, UniProt Q9Y2H1); conditions: NDR2 (STK38L); 1000 nM
# Chain of kinases (468) (Homo sapiens, UniProt P23458) (P23458 whole entry): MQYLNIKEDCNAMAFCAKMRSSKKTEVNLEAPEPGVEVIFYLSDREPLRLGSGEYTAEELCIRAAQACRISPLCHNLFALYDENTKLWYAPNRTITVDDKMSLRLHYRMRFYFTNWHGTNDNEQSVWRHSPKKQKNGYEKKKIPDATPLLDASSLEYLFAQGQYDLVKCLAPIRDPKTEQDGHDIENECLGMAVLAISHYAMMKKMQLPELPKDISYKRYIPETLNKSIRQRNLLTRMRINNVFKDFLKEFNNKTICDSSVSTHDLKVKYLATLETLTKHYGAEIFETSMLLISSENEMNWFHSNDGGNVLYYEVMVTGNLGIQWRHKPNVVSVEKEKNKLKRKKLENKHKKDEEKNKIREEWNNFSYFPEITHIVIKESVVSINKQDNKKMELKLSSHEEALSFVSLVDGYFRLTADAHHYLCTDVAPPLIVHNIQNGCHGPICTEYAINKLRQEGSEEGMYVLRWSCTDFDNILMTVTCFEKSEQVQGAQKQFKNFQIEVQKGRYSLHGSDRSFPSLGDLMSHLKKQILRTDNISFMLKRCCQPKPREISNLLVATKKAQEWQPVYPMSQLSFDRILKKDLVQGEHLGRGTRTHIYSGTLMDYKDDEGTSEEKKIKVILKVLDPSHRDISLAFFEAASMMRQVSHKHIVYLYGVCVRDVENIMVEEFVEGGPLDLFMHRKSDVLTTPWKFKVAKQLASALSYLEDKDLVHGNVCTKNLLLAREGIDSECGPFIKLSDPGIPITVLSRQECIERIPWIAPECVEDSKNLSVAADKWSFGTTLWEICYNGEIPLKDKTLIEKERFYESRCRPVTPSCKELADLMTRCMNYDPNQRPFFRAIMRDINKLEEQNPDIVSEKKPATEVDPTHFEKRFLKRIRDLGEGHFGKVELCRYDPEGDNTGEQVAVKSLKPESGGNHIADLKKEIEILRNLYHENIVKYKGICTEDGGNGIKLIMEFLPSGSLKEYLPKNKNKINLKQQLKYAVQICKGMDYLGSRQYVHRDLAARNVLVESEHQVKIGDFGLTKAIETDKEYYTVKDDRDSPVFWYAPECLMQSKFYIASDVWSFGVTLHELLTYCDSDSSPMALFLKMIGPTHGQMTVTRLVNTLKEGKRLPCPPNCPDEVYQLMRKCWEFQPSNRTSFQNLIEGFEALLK
# Chain of kinases (468) (Homo sapiens, UniProt Q9H4B4) (Q9H4B4 whole entry): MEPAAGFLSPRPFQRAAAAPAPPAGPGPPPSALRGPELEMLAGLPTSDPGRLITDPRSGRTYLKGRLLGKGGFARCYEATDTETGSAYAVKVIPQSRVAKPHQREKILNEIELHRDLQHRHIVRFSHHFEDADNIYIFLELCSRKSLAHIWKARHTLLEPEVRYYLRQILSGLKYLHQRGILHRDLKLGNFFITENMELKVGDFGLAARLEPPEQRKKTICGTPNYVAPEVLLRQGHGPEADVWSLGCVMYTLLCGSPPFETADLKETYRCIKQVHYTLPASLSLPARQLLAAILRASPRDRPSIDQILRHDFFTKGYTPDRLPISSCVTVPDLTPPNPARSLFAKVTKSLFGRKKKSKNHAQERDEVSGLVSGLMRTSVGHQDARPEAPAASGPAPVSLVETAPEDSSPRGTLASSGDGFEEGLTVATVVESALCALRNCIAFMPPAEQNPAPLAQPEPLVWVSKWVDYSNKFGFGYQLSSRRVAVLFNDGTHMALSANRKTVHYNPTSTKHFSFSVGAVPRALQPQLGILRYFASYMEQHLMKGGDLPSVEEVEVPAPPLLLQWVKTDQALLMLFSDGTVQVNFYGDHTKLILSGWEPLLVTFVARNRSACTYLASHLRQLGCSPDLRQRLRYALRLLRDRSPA
# Chain of kinases (468) (Homo sapiens, UniProt Q86UE8) (Q86UE8 whole entry): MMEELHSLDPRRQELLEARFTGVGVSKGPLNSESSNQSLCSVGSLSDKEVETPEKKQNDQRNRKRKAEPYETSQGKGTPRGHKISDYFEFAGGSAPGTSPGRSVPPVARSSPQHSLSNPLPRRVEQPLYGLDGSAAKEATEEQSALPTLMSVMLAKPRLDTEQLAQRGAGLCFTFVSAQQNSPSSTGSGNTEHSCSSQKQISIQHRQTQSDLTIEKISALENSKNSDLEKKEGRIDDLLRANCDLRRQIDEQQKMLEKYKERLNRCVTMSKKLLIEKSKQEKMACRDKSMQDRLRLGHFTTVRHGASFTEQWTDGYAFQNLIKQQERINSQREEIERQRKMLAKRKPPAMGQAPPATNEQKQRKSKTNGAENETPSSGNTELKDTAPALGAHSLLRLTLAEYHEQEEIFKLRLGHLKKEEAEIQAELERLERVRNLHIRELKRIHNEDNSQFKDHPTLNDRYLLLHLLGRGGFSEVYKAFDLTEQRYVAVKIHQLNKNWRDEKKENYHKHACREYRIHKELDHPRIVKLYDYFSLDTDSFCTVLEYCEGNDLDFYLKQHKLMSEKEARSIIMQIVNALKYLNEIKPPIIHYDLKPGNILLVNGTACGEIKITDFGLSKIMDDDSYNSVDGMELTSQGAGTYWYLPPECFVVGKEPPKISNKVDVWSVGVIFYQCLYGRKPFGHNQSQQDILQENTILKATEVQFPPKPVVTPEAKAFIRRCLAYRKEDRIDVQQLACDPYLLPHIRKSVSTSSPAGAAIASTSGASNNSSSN
# Chain of kinases (468) (Homo sapiens, UniProt Q13873) (Q13873 27-1038): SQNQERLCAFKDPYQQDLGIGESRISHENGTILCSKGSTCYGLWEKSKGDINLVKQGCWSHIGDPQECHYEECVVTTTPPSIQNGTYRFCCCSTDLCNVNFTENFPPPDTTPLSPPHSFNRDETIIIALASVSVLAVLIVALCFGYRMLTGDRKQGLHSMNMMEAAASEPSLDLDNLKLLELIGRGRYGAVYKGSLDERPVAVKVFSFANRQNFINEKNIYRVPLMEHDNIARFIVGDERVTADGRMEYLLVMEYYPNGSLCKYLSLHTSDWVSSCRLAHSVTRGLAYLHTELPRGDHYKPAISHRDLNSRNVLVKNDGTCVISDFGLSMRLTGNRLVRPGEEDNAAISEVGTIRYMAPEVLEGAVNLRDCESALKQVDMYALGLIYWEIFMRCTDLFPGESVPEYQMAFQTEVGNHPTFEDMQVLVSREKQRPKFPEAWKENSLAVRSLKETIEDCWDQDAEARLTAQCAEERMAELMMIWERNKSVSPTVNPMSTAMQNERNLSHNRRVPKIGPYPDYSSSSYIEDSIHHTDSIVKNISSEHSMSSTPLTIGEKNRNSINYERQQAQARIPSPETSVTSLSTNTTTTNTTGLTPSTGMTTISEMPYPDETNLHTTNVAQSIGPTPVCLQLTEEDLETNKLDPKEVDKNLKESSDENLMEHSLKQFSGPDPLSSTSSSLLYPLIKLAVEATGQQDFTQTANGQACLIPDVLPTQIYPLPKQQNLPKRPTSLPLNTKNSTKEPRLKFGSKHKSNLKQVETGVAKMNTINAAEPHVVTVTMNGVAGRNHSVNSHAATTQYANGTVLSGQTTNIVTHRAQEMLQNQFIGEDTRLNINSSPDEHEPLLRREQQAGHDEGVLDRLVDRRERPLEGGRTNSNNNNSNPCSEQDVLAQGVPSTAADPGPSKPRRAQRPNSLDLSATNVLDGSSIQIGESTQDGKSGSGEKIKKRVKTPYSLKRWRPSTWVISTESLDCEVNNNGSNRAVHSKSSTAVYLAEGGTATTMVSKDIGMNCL
# Chain of kinases (468) (Homo sapiens, UniProt Q9HCP0) (Q9HCP0 whole entry): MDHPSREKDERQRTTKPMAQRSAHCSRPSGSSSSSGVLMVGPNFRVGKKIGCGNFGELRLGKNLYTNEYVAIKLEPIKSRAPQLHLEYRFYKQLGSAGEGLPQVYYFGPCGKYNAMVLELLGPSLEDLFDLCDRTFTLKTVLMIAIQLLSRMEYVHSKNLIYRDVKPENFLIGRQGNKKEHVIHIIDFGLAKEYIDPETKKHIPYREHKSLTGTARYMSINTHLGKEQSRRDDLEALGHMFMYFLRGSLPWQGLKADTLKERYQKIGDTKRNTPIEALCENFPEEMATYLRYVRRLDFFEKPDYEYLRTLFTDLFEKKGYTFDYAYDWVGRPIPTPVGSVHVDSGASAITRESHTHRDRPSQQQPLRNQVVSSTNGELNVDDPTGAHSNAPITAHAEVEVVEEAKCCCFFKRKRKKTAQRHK
# Chain of kinases (468) (Homo sapiens, UniProt Q16659) (Q16659 whole entry): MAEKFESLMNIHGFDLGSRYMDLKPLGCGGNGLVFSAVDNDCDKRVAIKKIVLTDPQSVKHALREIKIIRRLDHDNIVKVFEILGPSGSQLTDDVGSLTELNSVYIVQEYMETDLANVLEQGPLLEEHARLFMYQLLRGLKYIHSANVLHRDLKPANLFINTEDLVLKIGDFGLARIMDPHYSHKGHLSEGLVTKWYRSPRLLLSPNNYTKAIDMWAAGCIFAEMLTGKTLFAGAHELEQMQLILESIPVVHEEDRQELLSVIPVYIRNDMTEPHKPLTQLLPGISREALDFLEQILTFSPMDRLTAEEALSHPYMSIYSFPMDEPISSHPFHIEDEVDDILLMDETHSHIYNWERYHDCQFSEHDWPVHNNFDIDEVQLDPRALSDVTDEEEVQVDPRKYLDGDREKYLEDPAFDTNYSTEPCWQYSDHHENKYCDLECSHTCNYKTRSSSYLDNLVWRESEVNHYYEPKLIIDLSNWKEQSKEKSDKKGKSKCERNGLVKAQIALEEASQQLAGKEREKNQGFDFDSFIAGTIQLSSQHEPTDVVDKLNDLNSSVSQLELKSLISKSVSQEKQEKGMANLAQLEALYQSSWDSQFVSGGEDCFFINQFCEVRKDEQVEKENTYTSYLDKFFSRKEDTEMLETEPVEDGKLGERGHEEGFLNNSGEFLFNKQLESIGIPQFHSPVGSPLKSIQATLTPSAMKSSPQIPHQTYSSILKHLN
# Chain of kinases (468) (Homo sapiens, UniProt Q8N752) (Q8N752 whole entry): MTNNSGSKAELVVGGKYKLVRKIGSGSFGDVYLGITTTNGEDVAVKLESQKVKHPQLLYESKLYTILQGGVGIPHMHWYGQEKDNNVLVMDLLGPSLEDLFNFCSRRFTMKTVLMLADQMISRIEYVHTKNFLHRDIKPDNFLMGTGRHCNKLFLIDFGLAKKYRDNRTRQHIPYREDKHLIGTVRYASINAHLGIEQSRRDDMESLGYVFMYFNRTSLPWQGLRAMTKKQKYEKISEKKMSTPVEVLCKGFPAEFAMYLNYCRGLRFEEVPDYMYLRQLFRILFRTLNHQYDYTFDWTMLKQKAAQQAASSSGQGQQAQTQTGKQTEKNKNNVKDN
structure (smiles),measurement,setting,value
C[C@H]1C[C@@H](O)CN(c2ncc(Cl)c(Nc3ccc4c(c3)c3c(c(=O)n4C)OCC(F)(F)[C@H](C4CC4)N3)n2)C1 [CCT373566_9A],Percent Control,kinases (468) [1],90%
same,Percent Control,kinases (468) [2],86%
same,Percent Control,kinases (468) [3],94%
same,Percent Control,kinases (468) [4]; ABL1(H396P)-nonphosphorylated,83%
same,Percent Control,kinases (468) [4]; ABL1(H396P)-phosphorylated,94%
same,Percent Control,kinases (468) [5],100%
same,Percent Control,kinases (468) [6],100%
same,Percent Control,kinases (468) [7],100%
same,Percent Control,kinases (468) [8]; JAK1(JH1domain-catalytic),100%
same,Percent Control,kinases (468) [8]; JAK1(JH2domain-pseudokinase),90%
same,Percent Control,kinases (468) [9],100%
same,Percent Control,kinases (468) [10],89%
same,Percent Control,kinases (468) [11],86%
same,Percent Control,kinases (468) [12],87%
same,Percent Control,kinases (468) [13],78%
same,Percent Control,kinases (468) [14],99%
same,Percent Control,kinases (468) [15],100%
same,Percent Control,kinases (468) [16],100%
same,Percent Control,kinases (468) [17],99%
same,Percent Control,kinases (468) [18],100%
same,Percent Control,kinases (468) [19],88%
same,Percent Control,kinases (468) [20],100%
same,Percent Control,kinases (468) [21],100%
same,Percent Control,kinases (468) [22],96%
same,Percent Control,kinases (468) [23],100%
same,Percent Control,kinases (468) [24],100%
same,Percent Control,kinases (468) [25],93%
same,Percent Control,kinases (468) [26],100%
same,Percent Control,kinases (468) [27],100%
same,Percent Control,kinases (468) [28],96%
same,Percent Control,kinases (468) [29],91%
same,Percent Control,kinases (468) [30],92%
same,Percent Control,kinases (468) [31],83%
same,Percent Control,kinases (468) [32],78%
same,Percent Control,kinases (468) [33],97%
same,Percent Control,kinases (468) [34],99%
same,Percent Control,kinases (468) [35],98%
